{"source": "patent US20030152910A1", "about": "“Method for identification and quantification of kinase inhibitors” (priority 1999, published 2003)", "key": {"[1]": {"system": "UL97-transfected 293 cells (293UL)", "experiment": "Growth inhibition of 293UL cells by GCV (FIG. 11A)", "format": "cell-based, human", "conditions": "for IC50: grown 90 h in presence of GCV", "protocol": "293 cells transfected with pUL97 expression construct (pcDNA3-UL97; see above under 2.1.) were grown for 14 d in presence of geneticin (750 μg/ml). Individual clones were isolated (minimal dilution), re-tested for geneticin resistance and for sensitivity to 100 μM GCV. Clones identified as geneticin resistant and GCV-sensitive were expanded and stored frozen in aliquots for further experiments, after having verified by Western blot their capacity to express UL97 protein.\n293UL cells were routinely grown in DMEM supplemented with 10% FCS, glutamine (1%), pyruvate (1%), geneticin (final 0.5 mg G418/ml culture), and penicillin/streptomycin (1%). Medium was changed every 3-4 d, and cells were subcultured before reaching confluency by trypsin/EDTA treatment (exposure of adherent cells to 5 mg/ml trypsin and 2 mg/ml EDTA, dissolved in sterile 0.85% NaCl) and re-seeding in at least 5-fold dilution. Cells were maximally 10 times subcultured before a new frozen batch was used.\nFor routine antiproliferative assays, 293 UL cells were suspended at 13.8×10^3 cells/ml in complete medium, and 145 μl/well (2000 cells) of this suspension were seeded in 96-well flat-bottom plates (Nunclon #167008). After attachment of the cells for 24 h, drugs were added: All wells received 5 μl GCV (4 mM in complete medium, final concentration 100 μM), and each 3 wells received 50 μl compound (40 μM in complete medium+0.4% DMSO). A control series received 50 μl 40 μM compound only in the absence of GCV. Another control plate, which had received cells or medium only, was glutaraldehyde-fixed or frozen (see below) at the time of drug addition and stained for quantitation of cell density.\nCells were further incubated for 72 h and then analyzed for proliferation (staining with methylene blue or fluorescent dyes, see section 2.4).\nA) UL97-transfected 293 cells 1,2,3,4: individual IC50 profiles (averages of triplicates); cells grown for 90 h in presence of GCV."}, "[2]": {"system": "Non-transfected 293 cells devoid of UL97 kinase activity", "experiment": "Growth inhibition of non-transfected 293 cells by GCV (FIG. 11B)", "format": "cell-based, human"}, "[3]": {"biological_target": "T1, human cytomegalovirus UL97 protein kinase (Human cytomegalovirus, UniProt P16788)", "T1 construct": "expressed in transfected cells", "experiment": "UL97 in-cell-activity assay (transfected 293 cells + GCV; colour conversion / LDH read-out)", "format": "cell-based", "protocol": "Human embryonic kidney cells 293 (ATCC CRL-1573), as cultivated with DMEM medium containing 5% fetal calf serum (FCS), were harvested by trypsinization, rinsed with PBS and seeded in 96-well plates at a cell number of 20,000 per well.\nTransfection (Lipofectamin Plus reagents, GibcoBRL) was performed at a cell layer confluency of 50-75%. For this, identical transfection conditions were chosen for 24 wells of the 96-well plate to obtain determinations over a 8-well line in triplicate. One transfection set-up for 24 wells was composed as follows:\nMeanwhile, culture media of the 96-well plates were removed by the use of a multichannel pipette and a 50-μl volume of fresh DMEM-0% FCS was given in each well. Then, 25 μl of each transfection set-up was added per well. Plates were incubated for 5 h at 37° C. in a 5% CO2 atmosphere. Subsequent to this incubation, a 125-μl volume of DMEM-10% FCS was added per well and incubated over night at 37° C. in a 5% CO2 atmosphere.\nTransfection media were removed from the cells by the use of a multichannel pipette. […]\nVisual and photometric determinations of the colour conversion of the phenol red-supplemented culture medium was performed by the use of a computer scanner and an ELISA reader (OD 560 nm).\nMeasurement of the lactate dehydrogenase (LDH) acitivity in the residual cell layer was performed with the CytoTox 96 Non-Radioactive Cytotoxicity (Promega). […] Thereafter, 50 μl of stop buffer was added and the colour reaction was quantitated by the use of an ELISA reader (OD 490 nm). […]\nFive days after addition of the substances, the read-out of signals was performed by the photometric quantification of the colour conversion of the culture medium and, for comparison, by the measurement of LDH activity in the residual cell layers. Qualitative/semi-quantitative illustrations are given by computer scanning figures in (a) for colour conversion, and in (b) for LDH activity. Quantitative values are presented as the results of photometric determinations in (c) for colour conversion, and in (d) for LDH activity. […]"}, "[4]": {"system": "293 cells transfected with wild-type or mutant pUL97 (K355M catalytically inactive)", "format": "cell-based, human", "conditions": "5 nM to 500 nM inhibitor, GCV 5-40 μM, wild-type and mutant pUL97, LDH 5 d posttransfection", "description": "If a test compound is capable of inhibiting the kinase, but additionally has a cytotoxic activity, no rescue from cell death would be observed. Thus, the method of the invention preferably comprises the additional step (e) distinguishing between (i) noncytotoxic test compounds having kinase inhibiting properties and (ii) test compounds having kinase inhibiting properties but additional cytotoxic side effects. Furthermore, the effect of a given test compound may be determined at several different concentrations of the test compound in order to obtain a more accurate information of the kinase inhibiting properties and possible unwanted cytotoxic side effects. […] In this manner, the concentration dependency and the target specificity of the inhibitory effect of the test compound and the concentration dependency of a possible cytotoxic effect may be determined together.\nSubstrate (e.g. ganciclovir) is then added in an appropriate concentration to transfected cells (as indicated in the diagram). […] As a measurement for cell death, either the colour conversion of the medium (containing phenol red as a pH indicator) can the quantified photometrically, or the LDH activity within the residual cell layer can be determined (resulting in low activities when extensive cell death has occurred). Other methods of quantification are also possible (e.g. measurement of cell proliferation). […]"}}, "note": "Values joined by “and” are separate entries in the source; they are usually repeats but may differ in a detail not shown here. Identical values can stand only once. Like-named read-outs stand apart in the source and are kept apart here."}
{"smiles": "Nc1nc(O)c2ncn(COC(CO)CO)c2n1", "note": "[GCV, ganciclovir]", "values": [{"measurement": "reduction of cell growth", "setting": "[1]; 100 μM GCV, 3 d, methylene blue", "result": 50, "unit": "%"}, {"measurement": "IC50", "setting": "[1]; Homo sapiens, HEK293, 90 h, average ± s.d. of 4 profiles, read-out: IC50 growth inhibition, average", "result": "26 ± 11", "unit": "µM"}, {"measurement": "IC50", "setting": "[1]; read-out: individual IC50 profiles (averages of triplicates)", "result": "41 µM and 19 µM and 17 µM"}, {"measurement": "IC50", "setting": "[2]; Homo sapiens, HEK293, non-transfected 293 cells", "result": 3700, "unit": "µM"}, {"measurement": "effect on proliferation of wild-type 293 cells", "setting": "[2]; up to 100 μM GCV", "result": "not affected"}]}
{"smiles": "Cn1c2ccccc2c2c3c(c4c5ccccc5n(CCC#N)c4c21)CNC3=O", "note": "[GÖ6976]", "values": [{"measurement": "specific inhibition of UL97 activity", "setting": "[3]; 5 nM and 50 nM inhibitor, GCV 2.5 and 5 μM, pl18neo-UL97, LDH activity after 5 days", "result": "stronger at the 50-nM than at the 5-nM concentration"}, {"measurement": "identification as UL97-specific inhibitor", "setting": "[3]; 50 nM inhibitor, GCV 1.25-160 μM, 5 days, colour conversion and LDH activity", "result": "identified as UL97-specific inhibitors"}, {"measurement": "inhibition of UL97 activity at the highest concentration (decrease in LDH activity indicates cytotoxicity)", "setting": "[3]; 500 nM inhibitor, GCV 2.5 and 5 μM, LDH activity after 5 days", "result": "markedly decreased"}]}
{"smiles": "CN[C@@H]1C[C@H]2O[C@@](C)([C@@H]1OC)n1c3ccccc3c3c4c(c5c6ccccc6n2c5c31)C(=O)NC4", "note": "[STP, staurosporine]", "values": [{"measurement": "inherent (nonspecific) cytotoxicity versus specific pUL97 inhibition", "setting": "[4]", "result": "nonspecific cytotoxicity"}]}
